By Ki is commonly meant the dissociation constant of the complex between target and ligand, obtained from inhibition or displacement. A lower Ki goes with a stronger hold on the target.

This is an account of results in BindingDB's records for doi:10.1021/jm010244+ (Axys Pharmaceuticals, 2001).

The target in this assay is plasmin (Homo sapiens). The assay can be described thus: The compound was tested for inhibition of human plasmin.

As to `Cc1cc2[nH]c(-c3cccc(-c4ccccc4)c3O)cc2cc1C(=N)N` [2-(2-Hydroxy-biphenyl-3-yl)-6-methyl-1H-indole-5-carboxamidine], the inhibition constant Ki is 210 nM.

Take `N=C(N)c1ccc2[nH]c(-c3cccc(-c4ccccc4)c3O)cc2c1Cl` [4-Chloro-2-(2-hydroxy-biphenyl-3-yl)-1H-indole-5-carboxamidine]: the affinity, expressed as Ki, was 3000 nM.
